Measured values: US7098228B2, “Indolyl derivatives” (Hoffmann-La Roche Inc., priority 2002, dated 2006)

What was measured:
PPARγ [1] = target: T1, PPARγ (Mus musculus, UniProt P37238); assay: PPARγ radioligand binding assay (scintillation proximity, GST-PPARγ-LBD); parameters: made in house; host or cells: E. coli BL21 (pLysS)
T1 sequence (P37238 204-505): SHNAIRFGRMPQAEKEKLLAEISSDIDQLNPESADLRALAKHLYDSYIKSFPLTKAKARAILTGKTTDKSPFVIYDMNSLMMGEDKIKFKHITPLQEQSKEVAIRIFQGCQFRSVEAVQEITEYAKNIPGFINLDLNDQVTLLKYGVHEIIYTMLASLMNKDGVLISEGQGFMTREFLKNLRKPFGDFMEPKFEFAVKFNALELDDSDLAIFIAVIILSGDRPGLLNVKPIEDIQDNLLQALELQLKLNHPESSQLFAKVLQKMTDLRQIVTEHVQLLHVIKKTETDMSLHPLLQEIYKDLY
Text: (§1) Full-length cDNA clones for human PPARα and mouse PPARγ were obtained by RT-PCR from human adipose and mouse liver cRNA, respectively, cloned into plasmid vectors and verified by DNA sequencing. […] To accomplish this, the portions of the cloned sequences encoding the LBDs were amplified from the full-length clones by PCR and then subcloned into the plasmid vectors. Final clones were verified by DNA sequence analysis.
Induction, expression, and purification of GST-LBD fusion proteins were performed in E. coli strain BL21 (pLysS) cells by standard methods (Ref: Current Protocols in Molecular Biology, Wiley Press, edited by Ausubel et al.).
Radioligand Binding Assay
PPARγ receptor binding was assayed in TKE50 (50 mM Tris-HCl, pH 8, 50 mM KCl, 2 mM EDTA, 0.1 mg/ml fatty acid-free BSA and 10 mM DTT). For each 96 well reaction an 140 ng equivalent of GST-PPARγ-LBD fusion protein was bound to 10 ug SPA beads (PharmaciaAmersham) in a final volume of 50 ul by shaking. The resulting slurry was incubated for 1 h at RT and centrifuged for 2 min at 1300 g. The supernatant containing unbound protein was removed and the semidry pellet containig the recptor-coated beads was resolved in 50 ul of TKE. For radioligand binding e.g. 10000 dpm 2(S)-(2-benzoyl-phenylamino)-3-{4-[1,1-ditritio-2-(5-methyl-2-phenyl-oxazol-4-yl) -ethoxy]-phenyl}-propionic acid in 50 ul were added, the reaction incubated at RT for 1 h and scintillation proximity counting performed. All binding assays were performed in 96 well plates and the amount of bound ligand measured on a Packard TopCount using OptiPlates (Packard). Nonspecific binding was determined in the presence of 10^−4 M unlabelled compound. Dose response curves were done in triplicates within a range of concentration from 10^−10 M to 10^−4 M.

PPARγ [2] = target: T1, PPARγ; assay: Luciferase transcriptional reporter gene assay, pFA-PPARγ-LBD in BHK21 cells; type: cell-based
Text: as §1
(§2) Luciferase Transcriptional Reporter Gene Assays
(§3) Baby hamster kidney cells (BHK21 ATCC CCL10) were grown in DMEM medium containing 10% FBS at 37° C. in a 95% O2:5% CO2 atmosphere. Cells were seeded in 6 well plates at a density of 10^5 Cells/well and then batch-transfected with either the pFA-PPARγ-LBD or pFA-PPARα-LBD expression plasmids plus the pFR-luc reporter plasmid and an expression plasmid encoding the secretable form of alkaline phosphatase (SEAP) as a normalization control. […] Six hours following transfection, the cells were harvested by trypsinization and seeded in 96 well plates at a density of 10^4 cells/well. After 24 hours to allow attachment of cells, the medium was removed and replaced with 100 ul of phenol red-free medium containing the test substances or control ligands (final. 0.1% DMSO). Following incubation of the cells for 24 hours with substances, 50 ul of the supernatant was recovered and analyzed for SEAP activity (Roche Molecular Biochemicals). The remainder of the supernatant was discarded, 50 ul PBS was added per well followed by one volume of Luciferase Constant-Light Reagent (Roche Molecular Biochemicals) to lyse the cells and initiate the luciferase reaction. Luminescence for both SEAP and luciferase was measured in a Packard TopCount. Luciferase activity was normalized to the SEAP control and transcriptional activation in the presence of a test substance was expressed as fold-activation over cells incubated in the absence of the substance. EC50 values were calculated using the XLfit program (ID Business Solutions Ltd. UK).

PPARα = target: T2, PPARα (Homo sapiens, UniProt Q07869); assay: Luciferase transcriptional reporter gene assay, pFA-PPARα-LBD in BHK21 cells; type: cell-based
T2 construct: PPARα (aa 167 to 469); expressed in transfected cells; host or cells: BHK21 (ATCC CCL10)
T2 sequence (Q07869 167-468 limits assumed): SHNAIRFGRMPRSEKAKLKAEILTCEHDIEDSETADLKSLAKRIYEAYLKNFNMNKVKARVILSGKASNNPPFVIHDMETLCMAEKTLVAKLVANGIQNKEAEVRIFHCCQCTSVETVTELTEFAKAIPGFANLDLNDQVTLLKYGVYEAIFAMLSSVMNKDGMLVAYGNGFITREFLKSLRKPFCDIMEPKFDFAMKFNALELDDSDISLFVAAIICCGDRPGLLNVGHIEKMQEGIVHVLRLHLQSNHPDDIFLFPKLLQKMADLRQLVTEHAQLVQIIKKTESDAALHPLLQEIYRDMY
Text: as §1, §2, §3

| IC50 (PPARγ [1]) | EC50 (PPARγ [2]) | EC50 (PPARα) | SMILES |
| --- | --- | --- | --- |
| 68 nM | 7 nM | 8 nM | CCOC(Cc1cccc2c1ccn2Cc1nc(-c2cc(OC)cc(OC)c2)oc1C)C(=O)O (racemic) [Example 1, rac-3-{1-[2-(3,5-Dimethoxy-phenyl)-5-methyl-oxazol-4-ylmethyl]-1H-indol-4-yl}-2-ethoxy-propionic acid] |
| 53 nM | 93 nM | 200 nM | CCOC(Cc1cccc2c1ccn2Cc1nc(-c2ccc(C(C)C)cc2)oc1C)C(=O)O (racemic) [Example 2, rac-2-Ethoxy-3-{1-[2-(4-isopropyl-phenyl)-5-methyl-oxazol-4-ylmethyl]-1H-indol-4-yl}-propionic acid] |
| – | – | 190 nM | CCOC(Cc1cccc2c1ccn2CCCc1nc(-c2ccccc2)oc1C)C(=O)O (racemic) [Example 3, rac-2-Ethoxy-3-{1-[3-(5-methyl-2-phenyl-oxazol-4-yl)-propyl]-1H-indol-4-yl}-propionic acid] |
| 1400 nM | 140 nM | 44 nM | CCOC(Cc1cccc2c1ccn2Cc1nc(-c2ccc(C(F)(F)F)cc2)oc1C)C(=O)O (racemic) [Example 10, rac-2-Ethoxy-3-{1-[5-methyl-2-(4-trifluoromethyl-phenyl)-oxazol-4-ylmethyl]-1H-indol-4-yl}-propionic acid] |
